Results: patent publication US20140328940A1, “MODULATION OF AXON DEGENERATION” (Genentech, Inc., priority 2009, published 2014)
Entries after “also recorded” stand apart in the source; their conditions may differ. *1 amine or outer side, *2 acyl side, *3 side chain or, on linkers, in order; H or OH if unused. Where a SMILES comes first, the peptide text is derived from it. Bridges are numbered along the chain shown (N, C = ends). Roman numbers before positions name the chains, in order. [ ]: non-standard residue; d: D form. Actinocin(9to1) = Cc1c2oc3c(C)ccc(C(=O)[*:1])c3nc-2c(C(=O)[*:2])c(N)c1=O; NMeV = CN[C@H](C(=O)O)C(C)C; Sar = CNCC(=O)O

Columns and labels:
Assay type in all cases: cell-based, mouse
[1] = tested on: DRG neurons (axon vs. cell body compartment); assay: Campenot chamber local axon degeneration (anti-NGF in axon compartment)
Method: Teflon dividers (Tyler Research) were cleaned by washing in water and wiping them clean of any residual grease. Dividers were then soaked in Nochromix (Godax Laboratories)/sulfuric acid overnight, rinsed five times in distilled and autoclaved water (SQ water), boiled for 30 minutes, and then air-dried before use
Mouse laminin (5 μg/ml in sterile filtered water; Invitrogen) was added to PDL coated 35 mm dishes (BD Biosciences) and they were incubated for 1 hour at 37° C., followed by two rinses in SQ water. The dishes were vacuum-dried and then air-dried in a laminar flow hood for 15 minutes. Prepared dishes were then scored with a pin rake (Tyler Research). […] High vacuum grease (VWR) was added to each Teflon divider under a dissection scope. The laminin coated PDL dishes were inverted and dropped onto the Teflon divider, with additional pressure added by use of a toothpick in the non-track-containing regions. Dishes were incubated for 1 hour at 37° C. Five hundred microliters of NBM+MC (50 ng/ml NGF) solution was added to each of the side compartments, and a grease barrier was added in front of the center cell slot.
Free E13.5 spinal cords were dissected from mouse embryos and placed into NBM+MC (25 ng/ml NGF) solution. DRGs were detached from the spinal cord with a tungsten needle. An NBM+MC-lubricated P200 pipette was used to move DRGs into a 1.5 ml tube. DRGs were pelleted with a tabletop centrifuge for 30 seconds. The supernate was discarded and 0.05% Trypsin/EDTA (cold) was added. The pellet was resolubilized with a pipette and incubated at 37° C. for 15 minutes with constant agitation (650 RPM). The sample was again centrifuged and the supernate discarded. The pellet was resuspended in warm NBM+MC (50 ng/ml NGF) solution and triturated with a flamed glass pipette 20 times, followed by trituration with a fire-bored glass pipette another 20 times. The samples were again centrifuged and the resulting pellets were resuspended in 0.5 ml NBM+MC (50 ng/ml NGF) solution. The cells were diluted to a final concentration of 2.5×10^6 cells/ml. The cell suspensions were loaded into a 1 ml syringe with a 22 gauge needle. The center slot of the Campenot divider was filled using the syringe (to a volume of at least 50 μl). The Campenot chamber was incubated overnight at 37° C. 2.5 ml NGF+MC (50 ng/ml NGF) solution was added to the center compartment and the grease gate was removed. The outer medium (cell body compartment) was replaced after three days with 2.5 ml NBM+MC medium (with 25 ng/ml NGF). After five days in culture, one distal compartment was washed three times with warmed NBM+MC (no NGF) solution. After the third wash, 500 μl NBM+MC (no NGF) solution was added to the axon compartment in combination with either 0.5% DMSO or an inhibitor. The cell body compartment was replaced with 2.5 ml NBM+MC medium (with 25 ng/ml NGF) containing either 0.5% DMSO or inhibitor.
After 28 hours of anti-NGF antibody treatment, 8% PFA/30% sucrose solution (see above) was added directly to the culture medium at a 1:1 dilution and incubated for 30 minutes. The Teflon divider was removed after the first 15 minutes of addition. The system was washed once with 2.5 ml PBS prior to immunostaining. Neurons were blocked in 5% BSA/0.2% triton in PBS for 30 minutes. The primary antibody Tuj1 (Covance) was added to a final dilution of 1:1000 in PBS containing 2% BSA and incubated overnight at 4° C. The dish was washed once with PBS. […] The dish was washed twice with PBS, and a 22×22 mm coverslip (VWR) was added with 350 μl of fluoromount G (Electron Microscopy Sciences). The neurons were visualized by use of a fluorescence microscope.
As described above, E13.5 DRGs were isolated and grown for 5 days in a Campenot chamber.

DRGs [2] = assay: anti-NGF antibody (NGF withdrawal) screen for inhibitors of axon degeneration in DRG explants; conditions: inhibitor 100 μM or 10 μM added 1 hour before 25 μg/ml anti-NGF; 20 hours; actin stain
Method: The anti-NGF antibody model described above in Example 1 was used in a screen for inhibitors of neuron or axon degeneration. A library of more than 400 small molecules (Tocris Bioscience) was tested to see which, if any, modulate degeneration observed in the presence of anti-NGF antibodies.
Mouse E13.5 embryos were dissected and placed into L15 medium (Invitrogen). The spinal cord was dissected out from the embryos with DRGs attached. The spinal cords with DRGs attached were placed into L15 medium+5% goat serum (Gibco) on ice. The DRGs were removed using a tungsten needle and the remaining spinal cord was disposed of. Eight well slides were filled with N3-F12 solution (23 ml Ham's F12, 1 ml N3 supplement, and 1 ml 1 M glucose) to which was added 25 ng/ml NGF (Roche). (N3 supplement was made by dilution of N3 100× concentrate, which was made by mixing the following ingredients, in the following order: 5.0 ml Hank's buffered saline solution (HBSS; Ca, Mg free; Invitrogen), 1.0 ml bovine serum albumin (10 mg/ml in HBSS=150 μm), 2.0 ml Transferrin (T1147-1G, human, 100 mg/ml in HBSS=1.1 mM), 1.0 ml sodium selenite (S9133-1MG, 0.01 mg/ml in HBSS 58 μM), 0.4 ml putrescine dihydrochloride (P5780-5G, 80 mg/ml in HBSS=500 mM), 0.2 ml progesterone (P8783-5G, 0.125 mg/ml in absolute ethanol=400 μM), 0.02 ml corticosterone (C2505-500MG, 2 mg/ml in absolute ethanol=5.8 mM), 0.1 ml triiodothyonine, sodium salt (T6397-100MG, 0.2 mg/ml in 0.01 N NaOH=300 μM), 0.4 ml insulin (16634-250MG, bovine pancreas, 241 U/mg, 25 mg/ml in 20 mM HCl=4.4 mM), for a total volume of 10.02 ml (can be stored at −20° C.). An N3 supplement stock was made by combining the following: 10 ml Pen/Strep (100×, Gibco), 10 ml glutamine (200 mM, Gibco), 10 ml MEM vitamins (100×, Gibco), 10 ml N3 concentrate (100×, see above), for a total volume of 40 ml. The mixture was filter sterilized using a 0.22 μm filter, and 1-2 ml aliquots were stored at −20° C.).
The DRGs were sectioned into halves and placed in the center of each well of an 8-chamber slide (BD Biocoat PDL/Laminin coated glass, Becton Dickinson). The DRGs were permitted to attach to the slide at room temperature for 5-10 minutes, followed by an overnight incubation at 37° C. Inhibitors of choice were added at a concentration of 100 μM (top row) or 10 μM (bottom row) 1 hour before adding anti NGF antibodies. The anti-NGF antibodies were added to the right half of the slide (4 wells) at a concentration of 25 μg/ml. After incubation for 20 hours at 37° C., the slides were fixed with 30% sucrose/8% paraformaldehyde (PFA) by adding 250 μl of the fix solution directly to the 250 μl of culture medium. (To make the 30% sucrose/8% PFA solution, the following ingredients were added to a 600 ml beaker including a stir bar: 250 ml 16% PFA (cat#15710-S, Electron Microscopy Sciences), 50 ml 10×PBS pH 7.4, and 150 g sucrose. The solution was mixed under low heat until dissolved, and then 6-8 drops of 1 M NaOH were added to bring the pH to 7.4. The volume was then brought to 500 ml with water in a graduated cylinder. The solution was mixed well, placed in aliquots, and frozen.) The s ides were fixed for 30 minutes, followed by washing once with PBS. All cells were labeled with an actin stain (Alexa-568 conjugated phalloidin; 1:40; Invitrogen), a membrane dye (DiO; 1:200; Invitrogen), and a DNA stain (Hoechst 33258; 1:10,000; Invitrogen) in 0.1% Triton and 1% goat serum for 2 hours at room temperature. […]

DRG explants = assay: pan-JNK inhibitors in NGF withdrawal assay on DRG explants; conditions: for concentration at which most protective: DRG explants, NGF withdrawal; for protection of DRG explants from NGF-dependent degeneration: treated with anti-NGF and inhibitor
Method: If DLK inhibition protects neurons from degeneration through limiting the phosphorylation of JNK2 and JNK3, then inhibitors of JNK2 or JNK3 should also protect neurons from cell death and axon degeneration. The ability of direct JNK inhibition to protect neurons against NGF withdrawal-dependent degeneration was also assessed. DRG explants were treated with anti-NGF and either pan-JNK inhibitor JNKV or JNKVIII, prior to assessment in the NGF withdrawal assay described above.

DRGs [3] = assay: G-protein/GPCR inhibitors in NGF withdrawal-induced degeneration in DRGs; conditions: 0.1 μM, 1 μM, 10 μM or 100 μM (FIGS. 49 and 50)
Method: The assays described herein identified several inhibitors of G-proteins and G-protein coupled receptors (GPCRs) that decrease degeneration in neurons. Experiments were performed in DRGs to verify the role of G-proteins and GPCRs in degeneration pathways. The experimental protocols used in these experiments are the same as those described in Example 14. Pertussis toxin and SCH 202676 were purchased from Tocris Bioscience.

[4] = tested on: cerebellar granule neurons (CGNs); assay: serum deprivation/KCl reduction degeneration of cerebellar granule neurons; conditions: 5 μM; 5 mM KCl, 24 hours
[5] = inhibitor 5 μM in axon compartment
[6] = inhibitor 5 μM in cell body compartment

SMILES: COc1ccc(CNC(=O)Nc2ncc([N+](=O)[O-])s2)cc1 [AR-A014418]
- Axon Compartment (protection of NGF-deprived axons) ([1]; inhibitor 20 μM in axon compartment): No (1)
- Cell Body Compartment (protection of NGF-deprived axons) ([1]; inhibitor 20 μM in cell body compartment): Yes (1)

SMILES: Cc1c2oc3c(C)ccc(C(=O)N[C@@H]4C(=O)N[C@H](C(C)C)C(=O)N5CCC[C@H]5C(=O)N(C)CC(=O)N(C)[C@@H](C(C)C)C(=O)O[C@@H]4C)c3nc-2c(C(=O)N[C@@H]2C(=O)N[C@H](C(C)C)C(=O)N3CCC[C@H]3C(=O)N(C)CC(=O)N(C)[C@@H](C(C)C)C(=O)O[C@@H]2C)c(N)c1=O [Actinomycin D] (I: T[dV]P[Sar][NMeV] / II: T[dV]P[Sar][NMeV]; ester I:1-I:C, II:1-II:C; linker I:N-II:N via Actinocin(9to1))
- formation of varicosities in locally NGF-deprived axons [1]: large number of axons with varicosities, as well as fragmented axons
- Axon Compartment (protection of NGF-deprived axons) ([1]; inhibitor 15 μM in axon compartment): No (4)
- Axon Compartment (protection of NGF-deprived axons) ([1]; inhibitor 15 μM in axon compartment, listed as Act D): failed to prevent degeneration
- Cell Body Compartment (protection of NGF-deprived axons) ([1]; inhibitor 15 μM in cell body compartment): Yes (4)
- Cell Body Compartment (protection of NGF-deprived axons) ([1]; inhibitor 15 μM in cell body compartment, listed as Act D): did not degenerate; also recorded: protected from local degeneration

SMILES: OC(CN1CCNCC1)Cn1c2ccc(Br)cc2c2cc(Br)ccc21 (centres unmarked) [Bax Channel Blocker]
- Comments (observations on compounds found to protect against neurodegeneration) (DRGs [2]): Cell bodies detach

SMILES: C[C@@H]1C[C@@H]([C@H](O)CC2CC(=O)NC(=O)C2)C(=O)[C@@H](C)C1 [Cycloheximide]
- Axon Compartment (protection of NGF-deprived axons) [1, 5]: No (2)
- Cell Body Compartment (protection of NGF-deprived axons) [1, 6]: Yes (2)

SMILES: C=C[C@@]1(C)CC(=O)[C@]2(O)[C@@]3(C)[C@@H](O)CCC(C)(C)[C@@H]3[C@H](O)[C@H](OC(C)=O)[C@@]2(C)O1 [Forskolin]
- Axon Compartment (protection of NGF-deprived axons) ([1]; inhibitor 3 μM in axon compartment): Yes (2)
- Cell Body Compartment (protection of NGF-deprived axons) ([1]; inhibitor 3 μM in cell body compartment): Yes (2)

SMILES: O=C1NC(=O)C(c2cn(CCCO)c3ncccc23)=C1c1cnccn1 [GSK3 inhibitor XI]
- Axon Compartment (protection of NGF-deprived axons) ([1]; inhibitor 30 μM in axon compartment, anti-NGF on axons 28 hours, number in parentheses not explained): No (2)
- Cell Body Compartment (protection of NGF-deprived axons) ([1]; inhibitor 30 μM in cell body compartment, anti-NGF on axons 28 hours, number in parentheses not explained): Yes (2)

SMILES: CCOc1nc(NC(=O)Cc2cc(OC)ccc2OC)cc(N)c1C#N [JNKVIII]
- concentration at which most protective (DRG explants): 4 µM
- protection of DRG explants from NGF-dependent degeneration (DRG explants): able to protect

SMILES: N#C/C(=C1/Nc2ccccc2S1)c1ccnc(NCCc2cccnc2)n1 [JNKV]
- concentration at which most protective (DRG explants): 5 µM
- protection of DRG explants from NGF-dependent degeneration (DRG explants): able to protect

SMILES: C=C[C@@]1(C)CC(=O)[C@]2(O)[C@@]3(C)[C@@H](O)CCC(C)(C)[C@@H]3[C@H](OC(=O)CCN(C)C)[C@H](OC(C)=O)[C@@]2(C)O1 [NKH 477]
- Comments (observations on compounds found to protect against neurodegeneration) (DRGs [2]): Partial

SMILES: C[S+]([O-])c1ccc(-c2nc(-c3ccc(F)cc3)c(-c3ccncc3)[nH]2)cc1.Cl (centres unmarked) [SB 203580 HCl]
- Comments (observations on compounds found to protect against neurodegeneration) (DRGs [2]): Partial

SMILES: CN=c1nc(-c2ccccc2)n(-c2ccccc2)s1 [SCH 202676]
- NGF withdrawal-induced degeneration in DRGs (DRGs [3]): decreases

SMILES: O=C1c2ccccc2-c2n[nH]c3cccc1c23 [SP600125]
- Axon Compartment (protection of NGF-deprived axons) [1, 5]: Yes (1)
- Cell Body Compartment (protection of NGF-deprived axons) [1, 6]: Yes (1)
- Axon Compartment (protection of NGF-deprived axons) ([1]; inhibitor 10 μM in axon compartment): Yes (1)
- Cell Body Compartment (protection of NGF-deprived axons) ([1]; inhibitor 10 μM in cell body compartment): Yes (1)
- protection of cerebellar granule neurons from serum deprivation/KCl reduction [4]: protect

SMILES: C[C@@H](NC(=O)/C(C#N)=C/c1ccc(O)c(O)c1)c1ccccc1 [Tyrphostin B44]
- Comments (observations on compounds found to protect against neurodegeneration) (DRGs [2]): Partial

SMILES: CCN(c1ccccc1)c1cc(NC)[n+](C)c(C)n1 [ZD7288]
- Axon Compartment (protection of NGF-deprived axons) [1, 5]: No (3)
- Cell Body Compartment (protection of NGF-deprived axons) [1, 6]: Yes (3)
